Earlier results on 1 molecule are cited in patent US9463180B2, “Treatment of molluscum contagiosum” (QUADEX PHARMACEUTICALS, LLC, priority 2013, dated 2016).

The structures appear in SMILES notation.

The subject of the data set is molluscum contagiosum. The following applies: small studies; applied 3 times per week, left on skin 6 to 10 hours.

`CC(C)Cn1cnc2c(N)nc3ccccc3c21` [Imiquimod]: the success rate result was “about 80%”.
